Literature values in patent US20030212112A1, “Method for administering a phosphodiesterase 4 inhibitor” (SmithKline Beecham Corporation, priority 1999, published 2003).

Details: clinical studies / indications reported in background

Row | SMILES | side effects
1 | CCCCn1c(=O)c2c(ncn2CC(C)=O)n(CCCC)c1=O [denbufylline] | may include pyrosis, nausea and emesis
2 | COc1ccc(C2CNC(=O)C2)cc1OC1CCCC1 (centres unmarked) [rolipram] | psychotropic activity and produces gastrointestinal effects
